In patent US12180193B2, “Accelerating fibrosarcoma protein degrading compounds and associated methods of use” (Arvinas Operations, Inc., priority 2020, dated 2024) one finds DC50 and Dmax data, which are given here for 13 molecules.

The target of one assay is T1, BRAF V600E (Homo sapiens, UniProt P15056, V600E).
T1 construct: expressed in transfected cells
Kind of assay: Cellular assay of target protein degradation, T-Rex 293 cells stably transfected with HA-BRAF_V600E (HA immunofluorescence, high content imaging). In kind it is cell-based. As to conditions: T-Rex 293 HA-BRAF V600E; for DC50: half maximal degradation, read-out: BRaf V600E DC50; for Dmax: maximum degradation observed. In outline:
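Read-out is anti-HA immunofluorescence quantified by high-content imaging, giving half-maximal degradation concentration (DC50) and maximum degradation (Dmax, percent of control). Cells expressed the construct under 1 ng/mL doxycycline and received compound (1 μM to 0.1 nM final, 0.1% DMSO) for 24 h at 37 °C.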

For another assay, the target named is T2, BRAF G466V (Homo sapiens, UniProt P15056, G466V).
T2 construct: expressed in transfected cells
Briefly: Cellular assay of target protein degradation, T-Rex 293 cells stably transfected with HA-BRAF G466V (HA immunofluorescence, high content imaging). As to conditions: T-Rex 293 HA-BRAF G466V; for DC50: half maximal degradation, read-out: BRaf G466V DC50; for Dmax: maximum degradation observed. In kind it is cell-based. In outline:
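First, stably transfected T-Rex 293 cells were plated with 0.75 ng/mL doxycycline and grown for 24 hours. Next, compound (final 30 nM to 3 pM, 0.1% DMSO) was added for another 24 hours at 37° C. Finally, cells were fixed, stained for HA and imaged.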

Where only a bound is given, the exact number is not on record here.

T1 sequence (P15056 whole entry V600E): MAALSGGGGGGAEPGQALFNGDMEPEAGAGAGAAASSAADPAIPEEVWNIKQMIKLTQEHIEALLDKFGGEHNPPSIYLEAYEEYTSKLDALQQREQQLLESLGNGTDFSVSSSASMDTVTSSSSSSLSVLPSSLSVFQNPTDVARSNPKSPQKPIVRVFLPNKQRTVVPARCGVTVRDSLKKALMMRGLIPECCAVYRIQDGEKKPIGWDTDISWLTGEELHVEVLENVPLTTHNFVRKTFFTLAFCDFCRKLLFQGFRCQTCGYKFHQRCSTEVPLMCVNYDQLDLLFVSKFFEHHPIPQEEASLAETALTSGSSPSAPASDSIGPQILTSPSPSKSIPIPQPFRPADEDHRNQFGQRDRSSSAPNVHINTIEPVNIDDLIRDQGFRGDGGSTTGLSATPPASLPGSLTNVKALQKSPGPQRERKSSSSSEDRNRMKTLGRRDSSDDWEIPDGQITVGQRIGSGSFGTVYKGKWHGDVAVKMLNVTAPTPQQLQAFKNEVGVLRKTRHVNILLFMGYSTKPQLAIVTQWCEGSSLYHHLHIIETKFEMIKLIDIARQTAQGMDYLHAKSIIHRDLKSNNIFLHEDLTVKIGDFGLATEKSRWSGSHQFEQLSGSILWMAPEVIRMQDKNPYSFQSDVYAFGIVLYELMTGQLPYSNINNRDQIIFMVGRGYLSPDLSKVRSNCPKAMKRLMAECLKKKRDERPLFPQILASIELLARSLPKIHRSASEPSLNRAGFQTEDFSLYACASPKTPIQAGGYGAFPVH
T2 sequence (P15056 whole entry G466V): as the sequence (P15056 whole entry V600E) above, with G466V, E600V counted along it

As to `COc1cc([C@H](O)CCN2CCN(c3ccc(-c4cnc5[nH]cc(C(=O)c6c(F)ccc(NS(=O)(=O)N7CC[C@@H](F)C7)c6F)c5c4)cc3)CC2)cc2c1C(=O)N([C@@H]1CCC(=O)NC1=O)C2` [Compound 187, (3R)-N-{3-[5-(4-{4-[(3R)-3-{2-[(3R)-2,6-dioxopiperidin-3-yl]-7-methoxy-1-oxo-2,3-dihydro-1H-isoindol-5-yl}-3-hydroxypropyl]piperazin-1-yl}phenyl)-1H-pyrrolo[2,3-b]pyridine-3-carbonyl]-2,4-difluorophenyl}-3-fluoropyrrolidine-1-sulfonamide], at BRAF V600E, the half-maximal degradation concentration (DC50) lay in the range of 50 to 500 nM and the Dmax lay in the range of 35 to 70%. Further, at BRAF G466V, the DC50 was 1 to 10 nM and the Dmax is over 70%.
The corresponding values for `O=C1CCC(N2Cc3cc(C4CCN(C[C@H]5C[C@H]6CC[C@@H](C5)N6c5ccc(-c6cnc7[nH]cc(C(=O)c8c(F)ccc(NS(=O)(=O)N9CC[C@@H](F)C9)c8F)c7c6)cc5)CC4)ccc3C2=O)C(=O)N1` (stereo partly drawn) [Compound 188, (3R)-N-[3-(5-{4-[(1R,3R,5S)-3-({4-[2-(2,6-dioxopiperidin-3-yl)-1-oxo-2,3-dihydro-1H-isoindol-5-yl]piperidin-1-yl}methyl)-8-azabicyclo[3.2.1]octan-8-yl]phenyl}-1H-pyrrolo[2,3-b]pyridine-3-carbonyl)-2,4-difluorophenyl]-3-fluoropyrrolidine-1-sulfonamide] are 5 to 50 nM, 35 to 70%, 1 to 10 nM and over 70%.
The corresponding values for `O=C1CCC(c2ccc(C3CCN(CC4CCN(c5ccc(-c6cnc7[nH]cc(C(=O)c8c(F)ccc(NS(=O)(=O)N9CC[C@@H](F)C9)c8F)c7c6)cc5)CC4)CC3)cc2)C(=O)N1` (stereo partly drawn) [Compound 189, (3R)-N-[3-(5-{4-[4-({4-[4-(2,6-dioxopiperidin-3-yl)phenyl]piperidin-1-yl}methyl)piperidin-1-yl]phenyl}-1H-pyrrolo[2,3-b]pyridine-3-carbonyl)-2,4-difluorophenyl]-3-fluoropyrrolidine-1-sulfonamide] are 5 to 50 nM, 35 to 70%, under 1 nM and 35 to 70%.
The corresponding values for `O=C1CCC(N2Cc3cc(C4CCN(CC5CCN(c6ccc(-c7cnc8[nH]cc(C(=O)c9c(F)ccc(NS(=O)(=O)N%10CCC(F)(F)C%10)c9F)c8c7)cc6)CC5)CC4)ccc3C2=O)C(=O)N1` (stereo not shown) [Compound 190, N-[3-(5-{4-[4-({4-[2-(2,6-dioxopiperidin-3-yl)-1-oxo-2,3-dihydro-1H-isoindol-5-yl]piperidin-1-yl}methyl)piperidin-1-yl]phenyl}-1H-pyrrolo[2,3-b]pyridine-3-carbonyl)-2,4-difluorophenyl]-3,3-difluoropyrrolidine-1-sulfonamide] are under 5 nM, 35 to 70%, 1 to 10 nM and over 70%.
Take `CCN(C)S(=O)(=O)Nc1ccc(F)c(C(=O)c2c[nH]c3ncc(-c4ccc(N5CCC(CN6CCC(c7ccc8c(c7)CN(C7CCC(=O)NC7=O)C8=O)CC6)CC5)cc4)cc23)c1F` (stereo not shown) [Compound 191, 3-(5-{1-[(1-{4-[3-(3-{[ethyl(methyl)sulfamoyl]amino}-2,6-difluorobenzoyl)-1H-pyrrolo[2,3-b]pyridin-5-yl]phenyl}piperidin-4-yl)methyl]piperidin-4-yl}-1-oxo-2,3-dihydro-1H-isoindol-2-yl)piperidine-2,6-dione]: on BRAF V600E, the DC50 was 5 to 50 nM and the Dmax lay within 35 to 70%. On BRAF G466V, the DC50 is under 1 nM and the Dmax is over 70%.
In the case of `O=C1CCC(N2Cc3cc(N4CC(CN5CCN(Cc6ccc(-c7cnc8[nH]cc(C(=O)c9c(F)ccc(NS(=O)(=O)N%10CC[C@@H](F)C%10)c9F)c8c7)cc6)CC5)C4)ccc3C2=O)C(=O)N1` (stereo partly drawn) [Compound 192, (3R)-N-{3-[5-(4-{[4-({1-[2-(2,6-dioxopiperidin-3-yl)-1-oxo-2,3-dihydro-1H-isoindol-5-yl]azetidin-3-yl}methyl)piperazin-1-yl]methyl}phenyl)-1H-pyrrolo[2,3-b]pyridine-3-carbonyl]-2,4-difluorophenyl}-3-fluoropyrrolidine-1-sulfonamide], at BRAF V600E, the DC50 lay within 5 to 50 nM and the Dmax lay within 35 to 70%. Further, on BRAF G466V, the DC50 was in the range of 1 to 10 nM and the Dmax was over 70%.
As for `O=C1CCC(N2Cc3cc(N4CC(CN5CCN(Cc6ncc(-c7cnc8[nH]cc(C(=O)c9c(F)ccc(NS(=O)(=O)N%10CC[C@@H](F)C%10)c9F)c8c7)cn6)CC5)C4)ccc3C2=O)C(=O)N1` (stereo partly drawn) [Compound 193, (3R)-N-{3-[5-(2-{[4-({1-[2-(2,6-dioxopiperidin-3-yl)-1-oxo-2,3-dihydro-1H-isoindol-5-yl]azetidin-3-yl}methyl)piperazin-1-yl]methyl}pyrimidin-5-yl)-1H-pyrrolo[2,3-b]pyridine-3-carbonyl]-2,4-difluorophenyl}-3-fluoropyrrolidine-1-sulfonamide], on BRAF V600E, the DC50 was 50 to 500 nM and the Dmax lay within 35 to 70%. In addition, on BRAF G466V, the DC50 fell in the range of 1 to 10 nM and the Dmax lay in the range of 35 to 70%.
Regarding `O=C1CCC(N2Cc3cc(N4CC(CN5CCC(Cc6ncc(-c7cnc8[nH]cc(C(=O)c9c(F)ccc(NS(=O)(=O)N%10CC[C@@H](F)C%10)c9F)c8c7)cn6)CC5)C4)ccc3C2=O)C(=O)N1` (stereo partly drawn) [Compound 194, (3R)-N-{3-[5-(2-{[1-({1-[2-(2,6-dioxopiperidin-3-yl)-1-oxo-2,3-dihydro-1H-isoindol-5-yl]azetidin-3-yl}methyl)piperidin-4-yl]methyl}pyrimidin-5-yl)-1H-pyrrolo[2,3-b]pyridine-3-carbonyl]-2,4-difluorophenyl}-3-fluoropyrrolidine-1-sulfonamide], on BRAF V600E, the DC50 was in the range of 50 to 500 nM and the Dmax lay in the range of 35 to 70%. Further, on BRAF G466V, the DC50 fell in the range of 1 to 10 nM and the Dmax is over 70%.
On the same counts, the results for `CN(CCN1CCN(c2ccc(-c3cnc4[nH]cc(C(=O)c5c(F)ccc(NS(=O)(=O)N6CC[C@@H](F)C6)c5F)c4c3)cc2)CC1)[C@H]1CC[C@H](Oc2ccc3c(c2)CN(C2CCC(=O)NC2=O)C3=O)CC1` (stereo partly drawn) [Compound 195, (3R)-N-[2,4-difluoro-3-(5-{4-[4-(2-{methyl[(1r,4r)-4-{[2-(2,6-dioxopiperidin-3-yl)-1-oxo-2,3-dihydro-1H-isoindol-5-yl]oxy}cyclohexyl]amino}ethyl)piperazin-1-yl]phenyl}-1H-pyrrolo[2,3-b]pyridine-3-carbonyl)phenyl]-3-fluoropyrrolidine-1-sulfonamide] are 5 to 50 nM, 35 to 70%, 1 to 10 nM and 35 to 70%.
For the molecule `O=C1CC[C@H](NC(=O)c2cc(C3CCN(CC4CCN(c5ccc(-c6cnc7[nH]cc(C(=O)c8c(F)ccc(NS(=O)(=O)N9CC[C@@H](F)C9)c8F)c7c6)cc5)CC4)CC3)ccc2F)C(=O)N1` [Compound 196, 5-(1-{[1-(4-{3-[2,6-difluoro-3-({[(3R)-3-fluoropyrrolidin-1-yl]sulfonyl}amino)benzoyl]-1H-pyrrolo[2,3-b]pyridin-5-yl}phenyl)piperidin-4-yl]methyl}piperidin-4-yl)-N-[(3S)-2,6-dioxopiperidin-3-yl]-2-fluorobenzamide], on BRAF V600E, the DC50 was 5 to 50 nM and the Dmax is 35 to 70%. At BRAF G466V, the DC50 is 1 to 10 nM and the Dmax fell in the range of 35 to 70%.
As for `O=C1CC[C@@H](NC(=O)c2cc(C3CCN(CC4CCN(c5ccc(-c6cnc7[nH]cc(C(=O)c8c(F)ccc(NS(=O)(=O)N9CC[C@@H](F)C9)c8F)c7c6)cc5)CC4)CC3)ccc2F)C(=O)N1` [Compound 197, 5-(1-{[1-(4-{3-[2,6-difluoro-3-({[(3R)-3-fluoropyrrolidin-1-yl]sulfonyl}amino)benzoyl]-1H-pyrrolo[2,3-b]pyridin-5-yl}phenyl)piperidin-4-yl]methyl}piperidin-4-yl)-N-[(3R)-2,6-dioxopiperidin-3-yl]-2-fluorobenzamide], the DC50 lay in the range of 5 to 50 nM on BRAF V600E and 1 to 10 nM at BRAF G466V. The Dmax at BRAF V600E is under 35%; at BRAF G466V, 35 to 70%.
Consider `O=C1CCC(N2Cc3cc(C4CCN(CC5CN(c6ccc(-c7cnc8[nH]cc(C(=O)c9c(F)ccc(NS(=O)(=O)N%10CC[C@@H](F)C%10)c9F)c8c7)cc6)C5)CC4)ccc3C2=O)C(=O)N1` (stereo partly drawn) [Compound 198, (3R)-N-[3-(5-{4-[3-({4-[2-(2,6-dioxopiperidin-3-yl)-1-oxo-2,3-dihydro-1H-isoindol-5-yl]piperidin-1-yl}methyl)azetidin-1-yl]phenyl}-1H-pyrrolo[2,3-b]pyridine-3-carbonyl)-2,4-difluorophenyl]-3-fluoropyrrolidine-1-sulfonamide], for which, at BRAF V600E, the DC50 is 5 to 50 nM and the Dmax is under 35%. In addition, on BRAF G466V, the DC50 fell in the range of 1 to 10 nM and the Dmax is over 70%.
Consider `O=C1CCN(c2ccc(C3CCN(CCC4CCN(c5ccc(-c6cnc7[nH]cc(C(=O)c8c(F)ccc(NS(=O)(=O)N9CC[C@@H](F)C9)c8F)c7c6)cc5)CC4)CC3)cc2F)C(=O)N1` [Compound 199, (3R)-N-[3-(5-[4-[4-(2-[4-[4-(2,4-dioxo-1,3-diazinan-1-yl)-3-fluorophenyl]piperidin-1-yl]ethyl)piperidin-1-yl]phenyl]-1H-pyrrolo[2,3-b]pyridine-3-carbonyl)-2,4-difluorophenyl]-3-fluoropyrrolidine-1-sulfonamide], for which, at BRAF V600E, the DC50 is 5 to 50 nM and the Dmax lay in the range of 35 to 70%. Besides, at BRAF G466V, the DC50 was 1 to 10 nM and the Dmax lay in the range of 35 to 70%.

As usually defined, the DC50 is the midpoint of the concentration-degradation curve. The term Dmax denotes the greatest extent of degradation seen. Higher therefore signals a fuller loss of target.
